Data published in patent US6011041A, “Use of anhydrovinblastine” (priority 1996, dated 2000).
Structures can show the parent of a compound that is named as a salt.

Assays:
[1] = tested on: nerves; details: vs vinblastine, vindesine; cited from earlier work
[2] = tested on: human rhabdosarcomas; details: in vivo; cited from earlier work
[3] = tested on: fast axoplasmic transport in nerve cells; details: cited from earlier work
[4] = tested on: tumour; details: alkaloids extracted from Vinca rosea; cited from earlier work
[5] = tested on: C-4 cells; experiment: cytotoxicity on C-4 cells (FIG. 8); type: cell-based; details: 72 h; C-4, 3 day incubation
Procedure: A wide range of drug concentrations were exposed to tumour cells growing at log phase in 96-well microtitre plates. Cell concentrations depended on the cell line as well as the length of time to be cultured. Typically, P388 cells were plated at a concentration of 30,000, 2,000 and 750 cells per well for studies lasting 1, 3 and 7 days, respectively MCF7 cells were plated at a concentration of 7,000 and 1,500 cells per well for studies lasting 3 and 7 days, respectively. H460 cells were plated at a concentration of 2,500 and 1,000 cells per well for studies lasting 3 and 7 days, respectively. K562 cells were plated at a concentration of 1,500 and 10,000 cells per well for studies lasting 1 and 3 days, respectively. LS180 cells were plated at a concentration of 5,000 and […] cells per well for studies lasting 3 and 7 days, respectively. After plating all cell lines were incubated (CO2 incubator at 37° C., 5% CO2) for 24 hours prior to addition of the cytotoxic agent (See Table 1). Subsequently the plates were incubated for the indicated time period. […] After the sample was mixed through repeated pipetting, the colored product was measured using a plate reader operating at 570 nm. The absorbance values obtained for cells cultured in the absence of drug was assumed to represent 100% viability. […]

[6] = P388 tumour antitumor activity and maximum tolerated dose in BDF1 mice (FIGS. 6, 7); type: in vivo; details: mouse, in vivo, iv; BDF1 mice bearing P388 tumors, single i.v. injection
Procedure: (§1) Antitumour studies in mice focused on the P388 leukemia model. […] This is an ascitic tumour model that was generated by intraperitoneal inoculation of 1×10^6 P388 cells (derived from culture, with an original cell line obtained from the NCI tumour repository) in BDF1 mice (Charles Rivers). One day after tumour cell inoculation, mice were treated with a single intravenous injection of drug. Animal weight was monitored daily and tumour progression was measured as an increase in animal weight and through estimation of survival time. Therapy was described by a decrease in tumour progression and an increase in survival time relative to an untreated control group. Initial studies established the maximum therapeutic dose for AHVB. Subsequently comparative studies with vincristine and navelbine were initiated where animals were treated with each drug at the maximum therapeutic dose.
(§2) The in vivo antitumour activity of AHVB was compared to that of vincristine, navelbine in the BDF1-murine P388 model in the procedure as follows. P388 cells were derived from the ascities of previously injected female BDF1 mice (19-21 grams) P388 cells, from the NCI tumor repository were inoculated directly into mice. The cells arrive from NCI frozen in 1 ml aliquots. These samples were thawed rapidly at 37° C. and subsequently injected (within 1 hour) intraperitoneally into two mice, 0.5 ml per mouse. One week (7 days) after inoculation, the tumor cells were harvested by removing peritoneal fluid using a sterile syringe with a 22 gauge needle. The cells, pooled from two animals, were counted using a heamocytometer, diluted (RPMI media) to a concentration of 2×10^6 cells/ml and 0.5 ml was then re-injected into each of two BDF1 mice. Remaining cells were washed and placed into a DMSO containing media and frozen (in freezer packs that cool at a defined rate). This process was repeated weekly over a […]. Cells used for anti-tumor studies were collected from the third passage to the 20th passage. After the 20th passage the cells were no longer used for experimental studies. Newly established cells were derived from the frozen cells prepared as described above.
(§3) Groups (five mice per group) of female BDFI mice (Charles Rivers, Canada) were injected (intraperitoneal) with 10^6 P388 cells (as described above). One day after tumor cell inoculation, the mice were given a bolus intravenous injection of indicated drug via the lateral tail vein. […] Following administration of the test articles, animals were weighed daily for fourteen days and monitored for signs of stress twice daily for the first 14 days (once daily on weekends) and once daily for the remainder of the study. Severely distressed animals were terminated by CO2 asphyxiation and the time of death was recorded to occur on the following day. […]

[7] = tested on: P388 tumor; experiment: as above; type: in vivo
Procedure: as §1, §2, §3

[8] = tested on: murine P388 leukemia; details: cited from earlier work
[9] = tested on: non-small cell lung cancer; details: patients; cited from earlier work
[10] = tested on: L1210 leukemia; details: cited from earlier work

Structure (SMILES): CC[C@]1(O)C[C@H]2CN(CCc3c([nH]c4ccccc34)[C@@](C(=O)OC)(c3cc4c(cc3OC)N(C=O)[C@H]3[C@@](O)(C(=O)OC)[C@H](OC(C)=O)[C@]5(CC)C=CCN6CC[C@]43[C@@H]65)C2)C1 [vincristine, Sulfate of 22-oxovincaleukoblastine]
- uptake into nerves, times faster than the other drugs [1]: 4 times
- activity in human rhabdosarcomas transplanted in nude mice [2]: very effective
- potency in blocking fast axoplasmic transport [3]: more potent than vinblastine or vindesine
- antitumour activity [4]: significant antitumour activity

Structure (SMILES): CCC1=CC2CN(CCc3c([nH]c4ccccc34)C(C(=O)OC)(c3cc4c(cc3OC)N(C)C3C(O)(C(=O)OC)C(OC(C)=O)C5(CC)C=CCN6CCC43C65)C2)C1 (stereo not drawn) [AHVB, 3',4'-anhydrovinblastine]
- IC50 [5]: 20 nM
- MTD [6]: 40 mg/kg
- times less toxic (on a weight basis) than vincristine ([7]; BDF1 mice bearing P388, single i.v.): approximately 10 times
- antitumor activity (number of long term survivors, >60 days) ([7]; maximum tolerated dose, AHVB 40 mg/kg vs vincristine 3 mg/kg, single i.v.): significantly better than that observed for vincristine
- in vivo antitumor efficacy relative to other vinca alkaloids such as vincristine and navelbine ([7]; overall conclusion): significant improvements in in vivo antitumor efficacy

Structure (SMILES): CCC1=C[C@@H]2CN(C1)Cc1c([nH]c3ccccc13)[C@@](C(=O)OC)(c1cc3c(cc1OC)N(C)[C@H]1[C@@](O)(C(=O)OC)[C@H](OC(C)=O)[C@]4(CC)C=CCN5CC[C@]31[C@@H]54)C2 [navelbine, 3',4'-didehydro-4'-deoxy-C'-norvincaleukoblastine-di-L-tartrate]
- potency against murine P388 leukemia [8]: less potent than vinbiastine and vincristine
- clinical utility in non-small cell lung cancer [9]: support its utility in treating non-small cell lung cancer
- potency against L1210 leukemia [10]: less potent than vinbiastine and vincristine
